Test results as given in patent US5795858A, “Treatment or prevention of Crohn's disease and/or ulcerative colitis” (Peptide Technology Limited, priority 1993, dated 1998).
Entries after “also recorded” stand apart in the source; their conditions may differ.

System: TNBS colitis
Assay: TNBS colitis in rats, 2 week series, once daily s.c. treatment
Assay type: in vivo, Male Sprague-Dawley rats
Protocol: Treatment was continued on a once daily basis for the following 14 or 28 days. On day 14 (2 week series) or 28 (4 week series), animals were weighed and anaesthetised with pentobarbital. A cardiac puncture was performed to obtain a sample of peripheral blood for the determination of total white blood cell count (WBC) using a coulter counter, and differential count. A midline laparotomy was then performed and the colon exposed and excised. The colon was then opened longitudinally and rinsed clear of […] material. The severity of colonic mucosal injury, diarrhoea, and adhesions was then scored by an observer unaware of the treatment group of the animals using the attached criteria. The length (in cm) and weight of each colonic segment was then determined to allow the determination of the colonic weight/length ratio (as an index of intramural edema and/or fibrosis). Samples of tissue were then taken for biochemical determination of tissue myeloperoxidase (MPO) activity, as an index of granulocyte accumulation using standard biochemical techniques. Samples of tissue were also taken and fixed for subsequent processing for histopathological examination. Differences between the different treatment groups were analysed using either one way analysis of variance (body weight, WBC counts, colonic weight/length ratio, […] activity) or the non-parametric equivalent Kruskall-Wallis test (semiquantitive grading of severity of mucosal injury, adhesions, or diarrhoea). Significance of differences between individual pairs of treatment groups were then assessed using post hoc Tukey's test for parametric data and Dunn's multiple comparison test for non-parametric data. […]

With `C[C@]12C=CC(=O)C=C1CC[C@@H]1[C@@H]2C(=O)C[C@@]2(C)[C@H]1CC[C@]2(O)C(=O)CO` [prednisone, reference compound] the “total WBC counts” value (5 mg/kg once daily s.c. for 2 weeks, vs TNBS colitis animals receiving vehicle, p 0.06-0.07, FIG. 1) was “reductions in total WBC counts”, the “severity of colonic adhesions” value (5 mg/kg once daily s.c., 2 weeks, FIG. 4) was “general trend towards reduction of adhesions” and the “TNBS colitis-associated changes in body weight (weight gain)” value (5 mg/kg once daily s.c., 2 weeks, initial vs final body weight, FIG. 2) was “increased weight gains in animals with colitis, with this becoming significant (p<0.05)”. For the same compound, the “colonic weight/length ratio (index of colonic edema)” value (5 mg/kg once daily s.c., 2 weeks, pattern compared with adhesions (no significant reduction, trend towards reduction), FIG. 5) was “Virtually identical patterns” and the “colonic myeloperoxidase activity (index of granulocyte accumulation)” value (5 mg/kg once daily s.c., 2 weeks, pattern compared with adhesions (no significant reduction, trend towards reduction), FIG. 7) was “Virtually identical patterns”.

“D--Ala--Ser--Thr--Thr--Thr--Asn--Tyr--Thr--NH2 [Peptide T]” was tested, and the “TNBS colitis-associated changes in body weight (weight gain)” value (rat, in vivo) was “increased weight gains in animals with colitis, with this becoming significant (p<0.05); also recorded: approaching significance (p values of 0.06 to 0.08)”, the “colonic myeloperoxidase activity (index of granulocyte accumulation)” value (rat, in vivo) was “Virtually identical patterns” and the “colonic weight/length ratio (index of colonic edema)” value (rat, in vivo) was “Virtually identical patterns”. The “reducing failure to thrive/lack of weight gain” value (rat, in vivo) was “comparable to prednisone”, the “reducing the severity of the leukocytosis” value (rat, in vivo) was “comparable to prednisone” and the “severity of colonic adhesions” value (rat, in vivo) was “general trend towards reduction of adhesions”. For the same compound, the “severity of mucosal injury (semiquantitative grading scale)” value (rat, in vivo) was “may have marginally reduced the severity of mucosal injury” and the “total WBC counts” value (rat, in vivo) was “reductions in total WBC counts”.
